Experiment [1] deals with Toxoplasma gondii. The experiment is described as follows: Antiparasitic activity Toxoplasma gondii RH infected Swiss albino mouse assessed as clear mononuclear cells in host liver focal granuloma at 0.25 mg, po administered 48 hr post-infection measured after 3 days by haematoxylin and eosin staining relative to control. Format: functional, organism-based.
In experiment [2] the test system is Toxoplasma gondii. The experiment is described as follows: Antiparasitic activity Toxoplasma gondii RH infected Swiss albino mouse assessed as clear lymphocytes in host liver focal granuloma at 0.25 mg, po administered 48 hr post-infection measured after 3 days by haematoxylin and eosin staining relative to control. It is filed as functional, organism-based.
Experiment [3] relates to Toxoplasma gondii. The experiment in a line: Antiparasitic activity Toxoplasma gondii RH infected Swiss albino mouse assessed as decrease in host spleen necrosis at 0.25 mg, po administered 48 hr post-infection measured after 3 days by haematoxylin and eosin staining relative to control. It is filed as functional, organism-based.
For experiment [4], the system named is Toxoplasma gondii. The experiment in a line: Antiparasitic activity against Toxoplasma gondii RH infected Swiss albino mouse assessed as decrease in tachozyte count in spleen at 0.25 mg, po administered 48 hr post-infection measured after 3 days by Geimsa staining relative to control. Format: functional, organism-based.
A further experiment concerns the target T1, Dihydrofolate reductase (Homo sapiens, UniProt P00374).
T1 sequence (P00374 whole entry): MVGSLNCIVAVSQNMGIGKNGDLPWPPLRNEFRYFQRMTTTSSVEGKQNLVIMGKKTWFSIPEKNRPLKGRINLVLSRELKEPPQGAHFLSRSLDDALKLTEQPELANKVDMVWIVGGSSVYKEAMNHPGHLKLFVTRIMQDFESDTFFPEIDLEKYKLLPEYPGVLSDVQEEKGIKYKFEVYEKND
The experiment in a line: Inhibition of Homo sapiens (human) dihydrofolate reductase using dihydrofolate as substrate incubated for 5 min prior to substrate addition by spectrophotometric assay.

The subject of experiment [5] is Toxoplasma gondii. The experiment is described as follows: Antiparasitic activity Toxoplasma gondii RH infected Swiss albino mouse assessed as parasite deformity in host peritoneal exudate at 0.25 mg, po administered 48 hr post-infection measured after 3 days by light microscopic analysis. Format: functional, organism-based.
For experiment [6], the system named is Toxoplasma gondii. The experiment in a line: Antiparasitic activity Toxoplasma gondii RH infected Swiss albino mouse assessed as decrease in Toxoplasma antigen in host serum at 0.25 mg, po administered 48 hr post-infection measured after 3 days by Co-A test relative to control. Format: functional, organism-based.
Experiment [7] concerns the target T2, Bifunctional dihydrofolate reductase-thymidylate synthase (Cryptosporidium parvum, UniProt Q27552).
T2 sequence (Q27552 whole entry): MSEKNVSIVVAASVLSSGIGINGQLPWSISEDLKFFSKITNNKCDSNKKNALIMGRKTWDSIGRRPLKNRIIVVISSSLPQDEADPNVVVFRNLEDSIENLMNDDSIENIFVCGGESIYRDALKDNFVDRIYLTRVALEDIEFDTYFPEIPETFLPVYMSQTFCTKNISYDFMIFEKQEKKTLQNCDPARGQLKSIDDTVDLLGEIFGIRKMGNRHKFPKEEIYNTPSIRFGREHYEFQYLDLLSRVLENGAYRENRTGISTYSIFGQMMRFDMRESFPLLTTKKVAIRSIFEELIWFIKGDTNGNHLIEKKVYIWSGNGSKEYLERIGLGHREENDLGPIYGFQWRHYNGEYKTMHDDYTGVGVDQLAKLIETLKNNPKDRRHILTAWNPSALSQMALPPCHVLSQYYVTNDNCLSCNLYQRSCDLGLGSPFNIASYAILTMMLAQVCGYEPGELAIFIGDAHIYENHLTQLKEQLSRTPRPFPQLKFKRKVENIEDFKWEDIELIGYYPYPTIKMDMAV
The experiment is described as follows: Inhibition of Cryptosporidium parvum recombinant DHFR using dihydrofolate as substrate incubated for 5 min prior to substrate addition by spectrophotometric assay.

Experiment [8] deals with Toxoplasma gondii. The experiment in a line: Antiparasitic activity Toxoplasma gondii RH infected Swiss albino mouse assessed as decrease in interstitial pneumonia at 0.25 mg, po administered 48 hr post-infection measured after 3 days by haematoxylin and eosin staining relative to control. Format: functional, organism-based.
Experiment [9] deals with Toxoplasma gondii. The experiment is described as follows: Antiparasitic activity Toxoplasma gondii RH infected Swiss albino mouse assessed as megakaryocytes in host spleen at 0.25 mg, po administered 48 hr post-infection measured after 3 days by haematoxylin and eosin staining relative to control. Format: functional, organism-based.
The test system of experiment [10] is Toxoplasma gondii. The experiment is described as follows: Antiparasitic activity Toxoplasma gondii RH infected Swiss albino mouse assessed as increase in host spleen red pulp at 0.25 mg, po administered 48 hr post-infection measured after 3 days by haematoxylin and eosin staining relative to control. Format: functional, organism-based.
Experiment [11] deals with Toxoplasma gondii. The experiment is described as follows: Antiparasitic activity against Toxoplasma gondii RH infected Swiss albino mouse assessed as decrease in tachozyte count in liver at 0.25 mg, po administered 48 hr post-infection measured after 3 days by Geimsa staining relative to control. It is filed as functional, organism-based.
For experiment [12], the system named is Toxoplasma gondii. The experiment is described as follows: Antiparasitic activity Toxoplasma gondii RH infected Swiss albino mouse assessed as decrease in host lung congestion at 0.25 mg, po administered 48 hr post-infection measured after 3 days by haematoxylin and eosin staining relative to control. Format: functional, organism-based.
Experiment [13] concerns Toxoplasma gondii. The experiment in a line: Antiparasitic activity Toxoplasma gondii RH infected Swiss albino mouse assessed as multiple deep ridged parasite surface in host peritoneal exudate at 0.25 mg, po administered 48 hr post-infection measured after 3 days by scanning electron microscopic analysis. Format: functional, organism-based.
Experiment [14] deals with Toxoplasma gondii. The experiment in a line: Antiparasitic activity Toxoplasma gondii RH infected Swiss albino mouse assessed as epethelioid granuloma in host spleen at 0.25 mg, po administered 48 hr post-infection measured after 3 days by haematoxylin and eosin staining relative to control. Format: functional, organism-based.
Experiment [15] concerns the target T3, Bifunctional dihydrofolate reductase-thymidylate synthase (Cryptosporidium parvum) (UniProt Q27552).
T3 sequence (whole entry): T2 sequence (Q27552 whole entry)
The experiment in a line: Ratio of trimethorpin IC50 to compound IC50 for Cryptosporidium parvum recombinant DHFR.

Experiment [16] concerns Toxoplasma gondii. The experiment is described as follows: Antiparasitic activity Toxoplasma gondii RH infected Swiss albino mouse assessed as extramedullary hematopoiesis in host spleen at 0.25 mg, po administered 48 hr post-infection measured after 3 days by haematoxylin and eosin staining relative to control. It is filed as functional, organism-based.
Experiment [17] relates to Toxoplasma gondii. The experiment is described as follows: Antiparasitic activity Toxoplasma gondii RH infected Swiss albino mouse assessed as decreased parasite movement in host peritoneal exudate at 0.25 mg, po administered 48 hr post-infection measured after 3 days by light microscopic analysis. It is filed as functional, organism-based.
Experiment [18] deals with Toxoplasma gondii. The experiment is described as follows: Antiparasitic activity Toxoplasma gondii RH infected Swiss albino mouse assessed as decrease in host spleen white pulp at 0.25 mg, po administered 48 hr post-infection measured after 3 days by haematoxylin and eosin staining relative to control. It is filed as functional, organism-based.
For experiment [19], the system named is Toxoplasma gondii. The experiment in a line: Antiparasitic activity Toxoplasma gondii RH infected Swiss albino mouse assessed as decrease in host liver necrosis at 0.25 mg, po administered 48 hr post-infection measured after 3 days by haematoxylin and eosin staining relative to control. Format: functional, organism-based.
The subject of experiment [20] is Toxoplasma gondii. The experiment in a line: Antiparasitic activity Toxoplasma gondii RH infected Swiss albino mouse assessed as disorganised parasite conoid in host peritoneal exudate at 0.25 mg, po administered 48 hr post-infection measured after 3 days by scanning electron microscopic analysis. It is filed as functional, organism-based.
Experiment [21] relates to Toxoplasma gondii. The experiment in a line: Antiparasitic activity Toxoplasma gondii RH infected Swiss albino mouse assessed as decrease in tachyzoites end tapering in host peritoneal exudate at 0.25 mg, po administered 48 hr post-infection measured after 3 days by scanning electron microscopic analysis. It is filed as functional, organism-based.
The subject of experiment [22] is Toxoplasma gondii. The experiment in a line: Antiparasitic activity Toxoplasma gondii RH infected Swiss albino mouse assessed as loss of parasite crescent shape in host peritoneal exudate at 0.25 mg, po administered 48 hr post-infection measured after 3 days by scanning electron microscopic analysis. It is filed as functional, organism-based.
The subject of experiment [23] is Toxoplasma gondii. The experiment in a line: Antiparasitic activity Toxoplasma gondii RH infected Swiss albino mouse assessed as elongated tachyzoites in host peritoneal exudate at 0.25 mg, po administered 48 hr post-infection measured after 3 days by scanning electron microscopic analysis. It is filed as functional, organism-based.
In experiment [24] the test system is Toxoplasma gondii. The experiment is described as follows: Antiparasitic activity Toxoplasma gondii RH infected Swiss albino mouse assessed as homogenous tachyzoites in host peritoneal exudate at 0.25 mg, po administered 48 hr post-infection measured after 3 days by scanning electron microscopic analysis. It is filed as functional, organism-based.
The subject of experiment [25] is Toxoplasma gondii. The experiment in a line: Antiparasitic activity Toxoplasma gondii RH infected Swiss albino mouse assessed as smooth tachyzoites in host peritoneal exudate at 0.25 mg, po administered 48 hr post-infection measured after 3 days by scanning electron microscopic analysis. It is filed as functional, organism-based.
Experiment [26] deals with Toxoplasma gondii. The experiment is described as follows: Antiparasitic activity Toxoplasma gondii RH infected Swiss albino mouse assessed as deep ridged parasite surface in host peritoneal exudate at 0.25 mg, po administered 48 hr post-infection measured after 3 days by scanning electron microscopic analysis. Format: functional, organism-based.
For experiment [27], the system named is Toxoplasma gondii. The experiment in a line: Antiparasitic activity Toxoplasma gondii RH infected Swiss albino mouse assessed as dimpled parasite surface in host peritoneal exudate at 0.25 mg, po administered 48 hr post-infection measured after 3 days by scanning electron microscopic analysis. Format: functional, organism-based.
The subject of experiment [28] is Toxoplasma gondii. The experiment in a line: Antiparasitic activity Toxoplasma gondii RH infected Swiss albino mouse assessed as parasite dimpled conoid in host peritoneal exudate at 0.25 mg, po administered 48 hr post-infection measured after 3 days by scanning electron microscopic analysis. It is filed as functional, organism-based.

The source of these data is ChEMBL document CHEMBL3045961, “Synthesis and evaluation of some pyrimidine analogs against toxoplasmosis” (Med Chem Res, 2008).

Calls of active or inactive are those of the source. The calls are words filed in the database; no cut-off is given here.

In the case of `CCOC(=O)C1=C(C)NC(S/C(=C\c2ccc(OC)cc2)C(=O)OCC)=NC1c1ccccc1` (stereo not drawn), the result with Toxoplasma gondii [1], with Toxoplasma gondii [2], with Toxoplasma gondii [3], with Toxoplasma gondii [4], in the experiment with Toxoplasma gondii [5] and with Toxoplasma gondii [6] was Active. For the same compound, the result in the experiment with Toxoplasma gondii [8], in the experiment on Toxoplasma gondii [9], in the experiment on Toxoplasma gondii [10], with Toxoplasma gondii [11], in the experiment with Toxoplasma gondii [13] and in the experiment with Toxoplasma gondii [16] was Active. Further, the result in the experiment on Toxoplasma gondii [17], in the experiment on Toxoplasma gondii [18] and with Toxoplasma gondii [19] was Active. In addition, the IC50 against Dihydrofolate reductase stood at 10 nM; in [7], 38 nM. Also, the result in the experiment with Toxoplasma gondii [12] and with Toxoplasma gondii [14] was inactive. Besides, the Ratio IC50 in [15] worked out at 40.

With `CC(=O)C1=C(C)N=C(SCCC(=O)O)NC1c1ccccc1` (stereo not drawn), the result in the experiment on Toxoplasma gondii [1], with Toxoplasma gondii [2], in the experiment on Toxoplasma gondii [3], in the experiment on Toxoplasma gondii [4], in the experiment with Toxoplasma gondii [5] and in the experiment on Toxoplasma gondii [6] was Active. The result in the experiment on Toxoplasma gondii [20], in the experiment with Toxoplasma gondii [21], with Toxoplasma gondii [8], in the experiment on Toxoplasma gondii [22], in the experiment on Toxoplasma gondii [10] and in the experiment on Toxoplasma gondii [11] was Active. The outcome in the experiment with Toxoplasma gondii [14], in the experiment on Toxoplasma gondii [17], in the experiment on Toxoplasma gondii [18], in the experiment with Toxoplasma gondii [19] and in the experiment with Toxoplasma gondii [23] was Active. Besides, the IC50 at Dihydrofolate reductase is 1.3 nM; in experiment [7] it was 27 nM. Further, the outcome in the experiment on Toxoplasma gondii [9], in the experiment with Toxoplasma gondii [12] and with Toxoplasma gondii [16] was inactive. Also, the Ratio IC50 in experiment [15] worked out at 40.

`CC(=O)C1=C(C)N=C(SCCC(=O)O)NC1c1cccc(O)c1` (stereo not drawn): the outcome in the experiment with Toxoplasma gondii [24], with Toxoplasma gondii [25], with Toxoplasma gondii [26], in the experiment with Toxoplasma gondii [1], with Toxoplasma gondii [2] and in the experiment on Toxoplasma gondii [3] was Active. The outcome with Toxoplasma gondii [4], in the experiment with Toxoplasma gondii [5], in the experiment with Toxoplasma gondii [27], in the experiment on Toxoplasma gondii [6], in the experiment with Toxoplasma gondii [8] and in the experiment with Toxoplasma gondii [10] was Active. Further, the result in the experiment with Toxoplasma gondii [11], in the experiment with Toxoplasma gondii [17], with Toxoplasma gondii [18] and with Toxoplasma gondii [19] was Active. The IC50 turned out to be 94 nM on Dihydrofolate reductase and 65 nM in [7]. Also, the outcome in the experiment on Toxoplasma gondii [9], in the experiment on Toxoplasma gondii [12], in the experiment on Toxoplasma gondii [14] and in the experiment on Toxoplasma gondii [16] was inactive. For the same compound, the Ratio IC50 in [15] is 40.

Regarding `CCOC(=O)C1=C(C)N=C(SCCC(=O)O)NC1c1ccccc1OC` (stereo not drawn), the outcome in the experiment with Toxoplasma gondii [1], in the experiment on Toxoplasma gondii [2], in the experiment on Toxoplasma gondii [3], with Toxoplasma gondii [4], in the experiment on Toxoplasma gondii [5] and in the experiment with Toxoplasma gondii [6] was Active. The outcome with Toxoplasma gondii [20], in the experiment on Toxoplasma gondii [8], with Toxoplasma gondii [22], with Toxoplasma gondii [10], in the experiment with Toxoplasma gondii [11] and in the experiment with Toxoplasma gondii [17] was Active. The result in the experiment on Toxoplasma gondii [18], in the experiment on Toxoplasma gondii [19] and with Toxoplasma gondii [28] was Active. The figures for the half-inhibitory concentration (IC50) (against Dihydrofolate reductase; in experiment [7]) were 8.9 nM and 75 nM, respectively. Also, the result in the experiment on Toxoplasma gondii [9], in the experiment on Toxoplasma gondii [12], with Toxoplasma gondii [14] and in the experiment on Toxoplasma gondii [16] was inactive. For the same compound, the Ratio IC50 in experiment [15] was 40.
